According to ChEMBL document CHEMBL1201862, “PubChem BioAssay data set” (2004):
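Cells were grown in 96-well plates and exposed to each compound for 48 hours at five concentrations; endpoints were interpolated linearly between bracketing concentrations, or set to the highest concentration if not reached. GI50 is the concentration that inhibits growth by half.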 Calls of active or inactive are those of the source. No stated cut-off is given here; in the data, active = GI50 up to about 1.1 µM and inactive = higher.

How the values were obtained:
Experiment in all cases: growth of human tumour cells (NCI), 48 h
786-0 = test system: 786-0
A549 = test system: A549
ACHN = test system: ACHN
CAKI-1 = test system: CAKI-1
CCRF-CEM = test system: CCRF-CEM
COLO 205 = test system: COLO 205
DU-145 = test system: DU-145
EKVX = test system: EKVX
HCT-116 = test system: HCT-116
HCT-15 = test system: HCT-15
HL-60 = test system: HL-60
HOP-62 = test system: HOP-62
HOP-92 = test system: HOP-92
HT-29 = test system: HT-29
Hs-578T = test system: Hs-578T
IGROV-1 = test system: IGROV-1
K562 = test system: K562
KM12 = test system: KM12
LOX IMVI = test system: LOX IMVI
M14 = test system: M14
MCF7 = test system: MCF7
MDA-MB-231 = test system: MDA-MB-231
MDA-MB-435 = test system: MDA-MB-435
MDA-N = test system: MDA-N
MOLT-4 = test system: MOLT-4
Malme-3M = test system: Malme-3M
NCI-H226 = test system: NCI-H226
NCI-H23 = test system: NCI-H23
NCI-H460 = test system: NCI-H460
NCI-H522 = test system: NCI-H522
NCI/ADR-RES = test system: NCI/ADR-RES
OVCAR-3 = test system: OVCAR-3
OVCAR-4 = test system: OVCAR-4
OVCAR-5 = test system: OVCAR-5
OVCAR-8 = test system: OVCAR-8
PC-3 = test system: PC-3
RPMI-8226 = test system: RPMI-8226
RXF 393 = test system: RXF 393
SF-268 = test system: SF-268
SF-295 = test system: SF-295
SF-539 = test system: SF-539
SK-MEL-28 = test system: SK-MEL-28
SK-MEL-2 = test system: SK-MEL-2
SK-MEL-5 = test system: SK-MEL-5
SN12C = test system: SN12C
SNB-19 = test system: SNB-19
SNB-75 = test system: SNB-75
SR = test system: SR
SW-620 = test system: SW-620
T47D = test system: T47D
TK-10 = test system: TK-10
U-251 = test system: U-251
UACC-257 = test system: UACC-257
UACC-62 = test system: UACC-62
UO-31 = test system: UO-31

CN(Cc1cnc2nc(N)nc(N)c2n1)c1ccc(C(=O)NC(CCC(=O)NC(P(=O)(O)O)P(=O)(O)O)C(=O)O)cc1 (stereo not given)
GI50 (786-0): 7.31 µM (inactive)
GI50 (A549): 15.3 µM (inactive)
GI50 (ACHN): 49.7 µM (inactive)
GI50 (CAKI-1): 12.4 µM (inactive)
GI50 (CCRF-CEM): 41.1 µM (inactive)
GI50 (COLO 205): > 100 µM (inactive)
GI50 (DU-145): 45.3 µM (inactive)
GI50 (EKVX): > 100 µM (inactive)
GI50 (HCT-116): 4.49 µM (inactive)
GI50 (HCT-15): 22.9 µM
GI50 (HL-60): 7.18 µM (inactive)
GI50 (HOP-62): 59.8 µM (inactive)
GI50 (HOP-92): > 100 µM (inactive)
GI50 (HT-29): 6.47 µM (inactive)
GI50 (Hs-578T): > 100 µM (inactive)
GI50 (IGROV-1): 36.7 µM (inactive)
GI50 (K562): 4.21 µM (inactive)
GI50 (KM12): 8.34 µM (inactive)
GI50 (LOX IMVI): 8.32 µM (inactive)
GI50 (M14): 8.34 µM (inactive)
GI50 (MCF7): 39.8 µM (inactive)
GI50 (MDA-MB-231): > 100 µM (inactive)
GI50 (MDA-MB-435): 30 µM (inactive)
GI50 (MDA-N): 16.2 µM (inactive)
GI50 (MOLT-4): 52.8 µM (inactive)
GI50 (Malme-3M): > 100 µM (inactive)
GI50 (NCI-H226): > 100 µM (inactive)
GI50 (NCI-H23): 50.8 µM (inactive)
GI50 (NCI-H460): 9.62 µM (inactive)
GI50 (NCI-H522): 29 µM (inactive)
GI50 (NCI/ADR-RES): 40.8 µM (inactive)
GI50 (OVCAR-3): > 100 µM (inactive)
GI50 (OVCAR-4): > 100 µM (inactive)
GI50 (OVCAR-5): 45.8 µM (inactive)
GI50 (OVCAR-8): 4.33 µM (inactive)
GI50 (PC-3): 5.62 µM (inactive)
GI50 (RPMI-8226): 52.4 µM (inactive)
GI50 (RXF 393): 4.79 µM (inactive)
GI50 (SF-268): 20.3 µM (inactive)
GI50 (SF-295): 13.1 µM (inactive)
GI50 (SF-539): 32.6 µM (inactive)
GI50 (SK-MEL-28): 83 µM (inactive)
GI50 (SK-MEL-2): 6.07 µM (inactive)
GI50 (SK-MEL-5): 45.5 µM (inactive)
GI50 (SN12C): 55.2 µM (inactive)
GI50 (SNB-19): 9.18 µM (inactive)
GI50 (SNB-75): > 100 µM (inactive)
GI50 (SR): 9.06 µM (inactive)
GI50 (SW-620): 6.84 µM (inactive)
GI50 (T47D): 26.3 µM (inactive)
GI50 (TK-10): > 100 µM (inactive)
GI50 (U-251): 6.43 µM (inactive)
GI50 (UACC-257): 99.1 µM (inactive)
GI50 (UACC-62): > 100 µM (inactive)
GI50 (UO-31): 78.2 µM (inactive)
